SMILES strings stand for the structures.

By Ki is commonly meant the dissociation constant of the complex between target and ligand, obtained from inhibition or displacement. A low value points to higher affinity.

In the assay the target is Plk1 (Homo sapiens, UniProt P53350). Kind of assay: biochemical.
Plk1, sequence (P53350 20-338): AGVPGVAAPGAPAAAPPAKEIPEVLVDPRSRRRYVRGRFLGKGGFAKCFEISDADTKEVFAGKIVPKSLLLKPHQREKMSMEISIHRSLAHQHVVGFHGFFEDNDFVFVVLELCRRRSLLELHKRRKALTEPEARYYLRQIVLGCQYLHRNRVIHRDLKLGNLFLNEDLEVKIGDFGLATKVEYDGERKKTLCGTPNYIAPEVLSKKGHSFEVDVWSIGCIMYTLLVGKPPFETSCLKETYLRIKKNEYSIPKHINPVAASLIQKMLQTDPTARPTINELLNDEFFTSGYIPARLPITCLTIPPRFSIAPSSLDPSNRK
In turn, `COc1cc(C(=O)NC2CC(C)(C)N(C)C(C)(C)C2)ccc1Nc1ncc2c(n1)N(C1CCCC1)CC(C)(C)C(=O)N2C` [Compound I-68, 4-(9-cyclopentyl-6,7,8,9-tetrahydro-5,7,7-trimethyl-6-oxo-5H-pyrimido[4,5-b][1,4]diazepin-2-ylamino)-3-methoxy-N-(1,2,2,6,6-pentamethylpiperidin-4-yl)-benzamide] returned an inhibition constant Ki of less than 10 nM. The figure for `CCCN1CCC(NC(=O)c2ccc(Nc3ncc4c(n3)N(C3CCCC3)CC(C)(C)C(=O)N4C)c(OC)c2)CC1` [Compound I-69] is less than 10 nM; for `COc1cc(C(=O)NC2CCN(CC(C)C)CC2)ccc1Nc1ncc2c(n1)N(C1CCCC1)CC(C)(C)C(=O)N2C` [Compound I-70] it is less than 10 nM. The figure for `COc1cc(C(=O)NC2CCN(C(C)(C)C)CC2)ccc1Nc1ncc2c(n1)N(C1CCCC1)CC(C)(C)C(=O)N2C` [Compound I-71, 4-(9-cyclopentyl-6,7,8,9-tetrahydro-5,7,7-trimethyl-6-oxo-5H-pyrimido[4,5-b][1,4]diazepin-2-ylamino)-N-(1-tert-butylpiperidin-4-yl)-3-methoxybenzamide] is less than 10 nM; for `CCN1CCC(NC(=O)c2ccc(Nc3ncc4c(n3)N(C3CCCC3)CC(C)(C)C(=O)N4C)c(OC)c2)CC1` [Compound I-72] it is less than 10 nM.

The compound `COc1cc(C(=O)N[C@H]2CCN(C(C)C)C2)ccc1Nc1ncc2c(n1)N(C1CCCC1)CC(C)(C)C(=O)N2C` [Compound I-73, 4-(9-cyclopentyl-6,7,8,9-tetrahydro-5,7,7-trimethyl-6-oxo-5H-pyrimido[4,5-b][1,4]diazepin-2-ylamino)-N—((S)-1-isoipropylpyrrolidin-3-yl)-3-methoxybenzamide] returned a Ki of less than 10 nM.

For the compound `CCOc1cc(C(=O)NC2CCN(C)CC2)ccc1Nc1ncc2c(n1)N(C1CCCC1)CC(C)(C)C(=O)N2C` [Compound I-74, 4-(9-cyclopentyl-6,7,8,9-tetrahydro-5,7,7-trimethyl-6-oxo-5H-pyrimido[4,5-b][1,4]diazepin-2-ylamino)-3-ethoxy-N-(1-methylpiperidin-4-yl)benzamide], the inhibition constant Ki is less than 10 nM. The figure for `COc1cc(C(=O)N[C@H]2CCN(CC3CC3)C2)ccc1Nc1ncc2c(n1)N(C1CCCC1)CC(C)(C)C(=O)N2C` [Compound I-75, 4-(9-cyclopentyl-6,7,8,9-tetrahydro-5,7,7-trimethyl-6-oxo-5H-pyrimido[4,5-b][1,4]diazepin-2-ylamino)-N—((S)-1-(cyclopropylmethyl)pyrrolidin-3-yl)-3-methoxybenzamide] is less than 10 nM. `COc1cc(C(=O)NC2CCN(C)CC2)ccc1Nc1ncc2c(n1)N(C1CCCC1)CC1(CC1)C(=O)N2C` [Compound I-76, 4-(9′-cyclopentyl-5′-methyl-6′-oxo-5′,6′,8′,9′-tetrahydrospiro[cyclopropane-1,7′-pyrimido[4,5-b][1,4]diazepine]-2′-ylamino)-3-methoxy-N-(1-methylpiperidin-4-yl)benzamide] showed a Ki of less than 10 nM. In the case of `COc1cc(C(=O)NC2CCN(CCF)CC2)ccc1Nc1ncc2c(n1)N(C1CCCC1)CC(C)(C)C(=O)N2C` [Compound I-77, 4-(-9-cyclopentyl-6,7,8,9-tetrahydro-5,7,7-trimethyl-6-oxo-5H-pyrimido[4,5-b][1,4]diazepin-2-ylamino)-N-(1-(2-fluoroethyl)piperidin-4-yl)-3-methoxybenzamide] it was less than 10 nM; in that of `CN1C(=O)C(C)(C)CN(C2CCCC2)c2nc(Nc3ccc(NC(=O)C(F)(F)F)cc3)ncc21` [Compound I-78, N-(4-(9-cyclopentyl-6,7,8,9-tetrahydro-5,7,7-trimethyl-6-oxo-5H-pyrimido[4,5-b][1,4]diazepin-2-ylamino)phenyl)-2,2,2-trifluoroacetamide], 10 to 100 nM; in that of `CC(=O)N1CCc2cc(Nc3ncc4c(n3)N(C3CCCC3)CC(C)(C)C(=O)N4C)ccc21` [Compound I-79, 2-(1-acetylindolin-5-ylamino)-9-cyclopentyl-8,9-dihydro-5,7,7-trimethyl-5H-pyrimido[4,5-b][1,4]diazepin-6(7H)-one], 10 to 100 nM.
